Counter-ions that a name gives are not always drawn.

The melting point is the temperature of the solid-liquid transition.

The compound `c1ccc2c(c1)CC(Nc1nc3ccccc3[nH]1)C2` [Example 6, N-(Benzimidazol-2-yl)-2-indanylamine] yielded a melting point of 246 to 249 °C.

The compound `Clc1ccc(C(CNc2nc3ccccc3[nH]2)c2ccc(Cl)cc2)cc1` [Example 3, N-(Benzimidazol-2-yl)-2,2-bis(4-chlorophenyl)ethylamine] gave a melting point of 189 to 190 °C.

As to `Brc1ccc2c(c1)CCC2Nc1nc2ccccc2[nH]1` (stereo not shown) [Example 9, N-(Benzimidazol-2-yl)-5-bromo-1-indanylamine], the melting point fell in the range of 242 to 243 °C.

For `Clc1ccc2c(c1)CCC2Nc1nc2ccccc2[nH]1` (stereo not shown) [Example 8, N-(Benzimidazol-2-yl)-5-chloro-1-indanylamine], the melting point is 242 to 243 °C.

Take `CC1CCc2ccccc2C1Nc1nc2ccccc2[nH]1` (stereo not shown) [Example 18, N-(Benzimidazol-2-yl)-2-methyl-1,2,3,4-tetrahydro-1-naphthylamine]: the melting point was 256 to 257 °C.

The compound `Fc1ccc2c(c1)C(Nc1nc3ccccc3[nH]1)CCC2` (stereo not shown) [Example 26, N-(Benzimidazol-2-yl)-7-fluoro-1,2,3,4-tetrahydro-1-naphthylamine] came in with a melting point of 181 °C.

Consider `c1ccc(C(CCNc2nc3ccccc3[nH]2)c2ccccc2)cc1` (as salt: HCl) [Example 4, N-(Benzimidazol-2-yl)-3,3-diphenylpropylamine], for which the melting point was 136.5 to 137.5 °C.

`c1ccc(C(Nc2nc3ccccc3[nH]2)c2ccccc2)cc1` [Example 11, N-(Benzimidazol-2-yl)benzhydrylamine] returned a melting point of 255 to 258 °C.

Take `Clc1ccc(C(Nc2nc3ccccc3[nH]2)c2ccccc2)cc1` (stereo not shown) [Example 12, N-(Benzimidazol-2-yl)-4-chlorobenzhydrylamine]: the melting point lay within 180 to 184 °C.

Compound `Cc1cc2nc(N[C@@H]3CCCc4ccccc43)[nH]c2cc1C` [Example 23, (R)-N-(5,6-Dimethylbenzimidazol-2-yl)-1,2,3,4-tetrahydro-1-naphthylamine] displayed a melting point of 121 to 124 °C.

`Fc1ccc2nc(NC3CCCc4ccccc43)[nH]c2c1` (stereo not shown) [Example 24, N-(5-Fluorobenzimidazol-2-yl)-1,2,3,4-tetrahydro-1-naphthylamine] yielded a melting point of 220 to 221 °C.

In turn, `CC1CCC(Nc2nc3ccccc3[nH]2)c2ccccc21` (stereo not shown) (as salt: HCl) [Example 20, N-(Benzimidazol-2-yl)-4-methyl-1,2,3,4-tetrahydro-1-naphthylamine] displayed a melting point of 276 °C.

For the compound `Clc1ccc(C(Nc2nc3ccccc3[nH]2)c2ccc(Cl)cc2)cc1` [Example 13, N-(Benzimidazol-2-yl)-4,4′-dichlorobenzhydrylamine], the melting point was 176 to 180 °C.

`c1ccc2c(c1)CCCCC2Nc1nc2ccccc2[nH]1` (stereo not shown) [Example 15, N-(Benzimidazol-2-yl)-6,7,8,9-tetrahydro-5H-benzocyclohepten-5-ylamine]: the melting point is 203 to 205 °C.

`c1ccc(C(CNc2nc3ccccc3[nH]2)c2ccccc2)cc1` (as salt: HCl) [Example 1, N-(Benzimidazol-2-yl)-2,2-diphenylethylamine]: the melting point was in the range of 153.5 to 154.5 °C.

`Fc1ccc2c(c1)CCC2Nc1nc2ccccc2[nH]1` (stereo not shown) [Example 7, N-(Benzimidazol-2-yl)-5-fluoro-1-indanylamine] displayed a melting point of 207 to 208 °C.

Compound `Fc1ccc(C(Nc2nc3ccccc3[nH]2)c2ccc(F)cc2)cc1` [Example 14, N-(Benzimidazol-2-yl)-4,4′-difluorobenzhydrylamine] registered a melting point of 241 to 243 °C.

`Fc1ccc(C(CNc2nc3ccccc3[nH]2)c2ccc(F)cc2)cc1` [Example 2, N-(Benzimidazol-2-yl)-2,2-bis(4-fluorophenyl)ethylamine] yielded a melting point of 155 to 157 °C.

Turning to `Cc1cc(C)c2c(c1)C(Nc1nc3ccccc3[nH]1)CCC2` (stereo not shown) [Example 19, N-(Benzimidazol-2-yl)-5,7-dimethyl-1,2,3,4-tetrahydro-1-naphthylamine], the melting point was 250 to 252 °C.
